Like-named read-outs stand apart in the source and are kept apart here.
Legend:
[1] = target: T1, Tissue transglutaminase (tTG) (Homo sapiens, UniProt P21980); assay: Inhibition of tTG (residual activity, glutamate dehydrogenase coupled assay); type: biochemical
T1 sequence (P21980 1-687): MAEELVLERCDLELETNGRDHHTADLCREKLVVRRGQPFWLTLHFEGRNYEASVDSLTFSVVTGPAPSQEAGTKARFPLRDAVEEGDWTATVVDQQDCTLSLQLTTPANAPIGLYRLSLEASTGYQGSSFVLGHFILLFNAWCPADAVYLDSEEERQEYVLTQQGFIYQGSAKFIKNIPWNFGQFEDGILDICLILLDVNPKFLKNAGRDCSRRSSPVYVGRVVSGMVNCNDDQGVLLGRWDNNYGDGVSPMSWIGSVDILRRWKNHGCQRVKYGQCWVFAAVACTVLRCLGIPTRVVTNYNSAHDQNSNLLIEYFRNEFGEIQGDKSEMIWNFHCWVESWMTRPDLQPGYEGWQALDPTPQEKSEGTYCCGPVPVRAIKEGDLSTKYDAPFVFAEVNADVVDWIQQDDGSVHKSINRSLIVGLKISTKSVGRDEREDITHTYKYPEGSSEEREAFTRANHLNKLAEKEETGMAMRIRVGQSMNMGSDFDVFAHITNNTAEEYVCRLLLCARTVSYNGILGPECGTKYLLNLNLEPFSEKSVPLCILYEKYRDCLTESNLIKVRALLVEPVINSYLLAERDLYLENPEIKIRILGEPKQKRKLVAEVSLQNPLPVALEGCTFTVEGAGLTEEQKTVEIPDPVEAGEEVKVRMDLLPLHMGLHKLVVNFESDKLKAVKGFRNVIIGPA
Procedure: Inhibition of tTG. tTG (9 μM) was inactivated in 200 mM MOPS, pH=7.1, 5 mM CaCl2, 1 mM ETDA at 30° C. containing 0-600 μM Pro-Gln-Pro-Aci-Leu-Pro-Tyr. Every 20 minutes a 40 μl aliquot was removed and residual tTG activity was assayed in 0.5 ml reaction containing 200 mM MOPS, pH=7.1, 5 mM CaCl2, 1 mM ETDA, 10 mM α-ketoglutarate, 180 U/ml glutamate dehydrogenase (Biozyme laboratories) at 30° C. for 20 minutes by measuring the decrease of absorption at 340 nm. Residual activity was corrected by the corresponding uninhibited tTG reaction (0 μM inhibitor) and fitted to an exponential decay. Kinetic parameters were obtained by double-reciprocal plotting of the apparent second-order inactivation constant or, for isatin analogs, by fitting the data for reversible inhibitors to a standard Michaelis Menten equation with a competitive inhibition constant.

[2] = target: T2, recombinant human tissue transglutaminase (Homo sapiens, UniProt P21980); assay: tTGase assay with recombinant human tissue transglutaminase; type: biochemical; conditions: dihydroisoxazole inhibitors of human tTGase; for Inhibition Rate Constants (kinh): irreversible inactivation; for Ki: competitive with Cbz-Gln-Gly substrate, read-out: Dissociation Constants (Kl)
T2 construct: made in house
T2 sequence (P21980 1-687): T1 sequence (P21980 1-687)

[3] = system: bovine epidermal transglutaminase; conditions: Castelhano et al., Bioorg. Chem. (1988) 16, 335-340; cited from earlier work
[4] = dihydroisoxazoles, 200 mM MOPS, pH=7.1, 30° C., read-out: KI
[5] = isatin derivatives, reversible, competitive inhibition constant, read-out: Kl

Row | Inhibition Rate Constants (kinh) [2] [min⁻¹] | kinh/Kl [2] [min^−1M^−1] | Ki [2] [µM] | SMILES | other results
1 | – | – | – | Cc1ccc(C)c(NC(=O)NCC2CC(Br)=NO2)c1 (stereo not drawn) [1-(3-Bromo-4,5-dihydro-isoxazol-5-ylmethyl)-3-(2,5-dimethyl-phenyl)-urea] | Ki [1, 4]: 960 µM
2 | – | – | – | O=C(NCC1CC(Br)=NO1)Nc1cc(C(F)(F)F)ccc1Cl (stereo not drawn) [1-(3-Bromo-4,5-dihydro-isoxazol-5-ylmethyl)-3-(2-chloro-5-trifluoromethyl-phenyl)-urea] | Ki [1, 4]: 910 µM
3 | – | – | – | O=C(NCC1CC(Br)=NO1)Nc1ccc(Cl)cc1C(F)(F)F (stereo not drawn) [1-(3-Bromo-4,5-dihydro-isoxazol-5-ylmethyl)-3-(4-chloro-2-trifluoromethyl-phenyl)-urea] | Ki [1, 4]: 1300 µM
4 | – | – | – | O=C(NCC1CC(Br)=NO1)Nc1ccc(F)cc1 (stereo not drawn) [1-(3-Bromo-4,5-dihydro-isoxazol-5-ylmethyl)-3-(4-fluoro-phenyl)-urea] | Ki [1, 4]: 1300 µM
5 | – | – | – | O=C(NCC1CC(Br)=NO1)Nc1ccccc1 (stereo not drawn) [1-(3-Bromo-4,5-dihydro-isoxazol-5-ylmethyl)-3-phenyl-urea] | Ki [1, 4]: 1100 µM
6 | 1.3 | – | – | O=C(N[C@@H](Cc1ccccc1)C(=O)NCC1CC(Br)=NO1)OCc1ccccc1 (stereo partly drawn) [1a, {(S)-1-[(3-Bromo-4,5-dihydro-isoxazol-5-ylmethyl)-carbamoyl]-2-phenyl-ethyl}-carbamic acid benzyl ester] | Inhibition of bovine epidermal transglutaminase [3]: inhibitor
7 | 0.42 | 980 | 430 | O=C(N[C@@H](Cc1ccc(F)cc1)C(=O)NCC1CC(Br)=NO1)OCc1ccccc1 (stereo partly drawn) [1c, {(S)-1-[(3-Bromo-4,5-dihydro-isoxazol-5-ylmethyl)-carbamoyl]-2-(4-fluoro-phenyl)-ethyl}-carbamic acid benzyl ester] | –
8 | 0.84 | 2200 | 390 | O=C(N[C@@H](Cc1cccc(F)c1)C(=O)NCC1CC(Br)=NO1)OCc1ccccc1 (stereo partly drawn) [1d, {(S)-1-[(3-Bromo-4,5-dihydro-isoxazol-5-ylmethyl)-carbamoyl]-2-(3-fluoro-phenyl)-ethyl}-carbamic acid benzyl ester] | –
9 | 0.78 | 2500 | 310 | O=C(N[C@@H](Cc1c[nH]c2ccccc12)C(=O)NCC1CC(Br)=NO1)OCc1ccccc1 (stereo partly drawn) [1e, {(S)-1-[(3-Bromo-4,5-dihydro-isoxazol-5-ylmethyl)-carbamoyl]-2-(1H-indol-3-yl)-ethyl}carbamic acid benzyl ester] | –
10 | 0.31 | 2800 | 110 | O=C(N[C@@H](Cc1c[nH]c2ccc(O)cc12)C(=O)NCC1CC(Br)=NO1)OCc1ccccc1 (stereo partly drawn) [1f, {(S)-1-[(3-Bromo-4,5-dihydro-isoxazol-5-ylmethyl)-carbamoyl]-2-(5-hydroxy-1H-indol-3-yl)-ethyl}-carbamic acid benzyl ester] | –
11 | 0.54 | 2300 | – | O=C(C[C@H](NC(=O)OCc1ccccc1)C(=O)NCC1CC(Br)=NO1)NCc1ccccc1 (stereo partly drawn) [1g, {(S)-2-Benzylcarbamoyl-1-[(3-bromo-4,5-dihydro-isoxazol-5-ylmethyl)-carbamoyl]-ethyl}-carbamic acid benzyl ester] | –
12 | 0.29 | – | – | O=C(N[C@H](Cc1ccccc1)C(=O)NCC1CC(Br)=NO1)OCc1ccccc1 (stereo partly drawn) [1h, {(R)-1-[(3-Bromo-4,5-dihydro-isoxazol-5-ylmethyl)-carbamoyl]-2-phenyl-ethyl}-carbamic acid benzyl ester] | –
13 | 0.41 | 450 | – | C[C@H](NC(=O)OCc1ccccc1)C(=O)NCC1CC(Br)=NO1 (stereo partly drawn) [1i, {(S)-1-[(3-Bromo-4,5-dihydro-isoxazol-5-ylmethyl)-carbamoyl]-ethyl}-carbamic acid benzyl ester] | –
14 | 0.32 | 230 | – | O=C(N[C@@H](Cc1ccccc1)C(=O)OCC1CC(Br)=NO1)OCc1ccccc1 (stereo partly drawn) [2a, (S)-2-Benzyloxycarbonylamino-3-phenyl-propionic acid 3-bromo-4,5-dihydro-isoxazol-5-ylmethyl ester] | –
15 | 0.19 | 730 | – | CN(CC1CC(Br)=NO1)C(=O)[C@H](Cc1ccccc1)NC(=O)OCc1ccccc1 (stereo partly drawn) [2b, {(S)-1-[(3-Bromo-4,5-dihydro-isoxazol-5-ylmethyl)-methyl-carbamoyl]-2-phenyl-ethyl}-carbamic acid benzyl ester] | –
16 | 0.60 | 220 | – | CC(=O)N[C@@H](Cc1ccccc1)C(=O)NCC1CC(Br)=NO1 (stereo partly drawn) [3a, (S)-2-Acetylamino-N-(3-bromo-4,5-dihydro-isoxazol-5-ylmethyl)-3-phenyl-propionamide] | –
17 | 0.12 | 1500 | 81 | O=C(N[C@@H](Cc1ccc(O)cc1)C(=O)NCC1CC(Br)=NO1)OCc1ccncc1 (stereo partly drawn) [3b, {(S)-1-[(3-Bromo-4,5-dihydro-isoxazol-5-ylmethyl)-carbamoyl]-2-(4-hydroxy-phenyl)-ethyl}-carbamic acid pyridin-4-ylmethyl ester] | –
18 | 0.21 | 2700 | 78 | O=C(N[C@@H](Cc1ccc(O)cc1)C(=O)NCC1CC(Br)=NO1)OCc1cccnc1 (stereo partly drawn) [3c, {(S)-1-[(3-Bromo-4,5-dihydro-isoxazol-5-ylmethyl)-carbamoyl]-2-(4-hydroxy-phenyl)-ethyl}-carbamic acid pyridin-3-ylmethyl ester] | –
19 | 0.093 | 1500 | 61 | O=C(N[C@@H](Cc1ccc(O)cc1)C(=O)NCC1CC(Br)=NO1)OCCc1ccccc1 (stereo partly drawn) [3d, {(S)-1-[(3-Bromo-4,5-dihydro-isoxazol-5-ylmethyl)-carbamoyl]-2-(4-hydroxy-phenyl)-ethyl}-carbamic acid phenethyl ester] | –
20 | 0.070 | 1600 | 43 | O=C(N[C@@H](Cc1ccc(O)cc1)C(=O)NCC1CC(Br)=NO1)OCc1ccc2ccccc2c1 (stereo partly drawn) [3e, {(S)-1-[(3-Bromo-4,5-dihydro-isoxazol-5-ylmethyl)-carbamoyl]-2-(4-hydroxy-phenyl)-ethyl}-carbamic acid naphthalen-2-ylmethyl ester] | –
21 | 0.38 | 4400 | 87 | O=C(N[C@@H](Cc1ccc(O)cc1)C(=O)NCC1CC(Br)=NO1)OCC1=Cc2ccccc2S1(=O)=O (stereo partly drawn) [3f, {(S)-1-[(3-Bromo-4,5-dihydro-isoxazol-5-ylmethyl)-carbamoyl]-2-(4-hydroxy-phenyl)-ethyl}-carbamic acid 1,1-dioxo-1H-1λ6-benzo[b]thiophen-2-ylmethyl ester] | –
22 | – | – | – | O=C1Nc2c(cccc2-c2ccccc2)C1=O [R1 = R2 = H; R3 = Ph] | Ki [1, 5]: 400 µM
23 | – | – | – | O=C1Nc2ccccc2C1=O [R1 = R2 = R3 = H] | Ki [1, 5]: 860 µM
24 | – | – | – | O=C1Nc2cc(-c3ccccc3)ccc2C1=O [R1 = R3 = H; R2 = Ph] | Ki [1, 5]: 350 µM
25 | – | – | – | O=C1Nc2ccc([N+](=O)[O-])cc2C1=O [R2 = R3 = H, R1 = NO2] | Ki [1, 5]: 48 µM
26 | – | – | – | O=C1Nc2ccc(F)cc2C1=O [R2 = R3 = H; R1 = F] | Ki [1, 5]: 18 µM
27 | – | – | – | O=C1Nc2ccc(I)cc2C1=O [R2 = R3 = H; R1 = I] | Ki [1, 5]: 22 µM
28 | 0.54 | 6800 | 79 | O=C(N[C@@H](Cc1c[nH]c2ccc(O)cc12)C(=O)NCC1CC(Br)=NO1)OCC1=Cc2ccccc2S1(=O)=O (stereo partly drawn) [compound 4, {(S)-1-[(3-Bromo-4,5-dihydro-isoxazol-5-ylmethyl)-carbamoyl]-2-(5-hydroxy-1H-indol-3-yl)-ethyl}-carbamic acid 1,1-dioxo-1H-1λ6-benzo[b]thiophen-2-ylmethyl ester] | –

Row | SMILES | Inhibition Rate Constants (kinh) [2] [min⁻¹] | kinh/Kl [2] [min^−1M^−1] | Ki [2] [µM] | other results
29 | O=C(N[C@@H](Cc1ccc(O)cc1)C(=O)NCC1CC(Br)=NO1)OCc1ccccc1 (stereo partly drawn) [1b] | 0.86 | 2000 | 420 | –

Source: patent US20080233102A1, “Drug Therapy for Celiac Sprue” (priority 2002, published 2008)
